# In patent US20090197867A1, “ENANTIOMERICALLY ENRICHED IMIDAZOAZEPINONE COMPOUNDS” (priority 2007, published 2009):
# Key:
# CAIA mouse = assay: Suppression of arthritis development in CAIA (passive immunization); assay type: in vivo; settings: BALB/c mice, once daily PO day 0 to day 7
# Description: Suppression of arthritis development in CAIA. BALB/c mice were injected i.v. with 1 mg of anti-type II collagen antibody at day 0, and 3 days later 25 μg of LPS was injected i.p. with active compound and methotrexate (MTX) was given once daily PO from day 0 to day 7. Arthritis score and body weight was monitored over the course of study.
# CIA mouse = assay: Suppression of arthritis development in CIA (active immunization); assay type: in vivo; settings: DBA1/J mice, oral dosing once daily, read-out: Arthritis Model Approx ED50, Active Immunization (CIA mouse)
# Text: Suppression of arthritis development in CIA. DBA1/J mice were immunized with bCII/CFA at day 0 then boosted at day 21 with bCII/IFA. Arthritis development was monitored over the course of study. The arthritis score is as follows: 0=normal paw, score of 1=1-2 digit inflamed paws; score of 2=3 digits or 1-2 digit+wrist or ankle inflamed, score of 3=hand+more than 2 digits inflamed; and score of 4=multiple digits (3-4)+important wrist or ankle inflammation.
# (A) Partial therapeutic evaluation of compounds. Active compound was given by oral dosing once daily at the dose indicated from day 20 after induction of antibodies to collagen II but before disease development. (B) Full therapeutic evaluation of compound. Active compound was given after disease was developed (from day 7 after the second immunization). (C) X-ray analysis of mouse paws from full therapeutic CIA study. X-ray score is the index of measurement of combination of osteopenia, bone erosion and new bone formation. (D) Representative X-ray radiographs.
Compound,"ED50 (CAIA mouse; Mus musculus, read-out: Arthritis Model Approx ED50, Passive Immunization (CAIA mouse)) [mg/kg]",ED50 (CIA mouse) [mg/kg],activity in the CAIA model (arthritis score) (CAIA mouse)
CCN1C(=O)N2Cc3cc(OC)cc(OC)c3[C@@H](C)C=C2C12CCN(Cc1cc(C)cc(C)c1)CC2 [ER-819762-01],30 to 60,~3,
CCN1C(=O)N2Cc3cc(OC)cc(OC)c3[C@@H](C)C=C2C12CCN(Cc1cccn1C)CC2 [ER-819924-01],,3 to 10,
CCN1C(=O)N2Cc3cc(OC)cc(OC)c3[C@@H](C)C=C2C12CCN(Cc1cc(C)nn1C)CC2 [ER-819973-01],,3 to 10,
"CN(Cc1cnc2nc(N)nc(N)c2n1)c1ccc(C(=O)N[C@@H](CCC(=O)O)C(=O)O)cc1 [methotrexate, reference compound]",,,not particularly active
